Assay results published in ChEMBL document CHEMBL1201862, “PubChem BioAssay data set” (2004).
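In this assay, cells in 96-well plates receive the compound at five concentrations for 48 hours. Endpoints are linearly interpolated between the surrounding concentrations. Here, GI50 denotes the concentration required for 50% inhibition of growth.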 Active and inactive are the calls of the source. Rule as the data show it: active = GI50 up to about 1.1 µM and inactive = higher.

How the values were obtained:
Test in all cases: NCI anticancer screen, dose series, 48 h
MOLT-4 = system: MOLT-4
MDA-MB-231 = system: MDA-MB-231
SR = system: SR
Malme-3M = system: Malme-3M
UACC-62 = system: UACC-62
DU-145 = system: DU-145
HOP-62 = system: HOP-62
CAKI-1 = system: CAKI-1
PC-3 = system: PC-3
OVCAR-8 = system: OVCAR-8
Hs-578T = system: Hs-578T
COLO 205 = system: COLO 205
RXF 393 = system: RXF 393
HL-60 = system: HL-60
OVCAR-3 = system: OVCAR-3
SF-268 = system: SF-268
NCI-H522 = system: NCI-H522
NCI-H226 = system: NCI-H226
SK-OV-3 = system: SK-OV-3
SN12C = system: SN12C

Measured: GI50

Cc1ccc(NC(S)=Nc2c(C)n(C)n(-c3ccccc3)c2=O)cc1
inactive: MOLT-4 87.9 µM | MDA-MB-231 > 100 µM | SR > 100 µM | Malme-3M > 100 µM | UACC-62 > 100 µM | DU-145 > 100 µM | HOP-62 > 100 µM | CAKI-1 > 100 µM | PC-3 > 100 µM | OVCAR-8 > 100 µM | Hs-578T > 100 µM | COLO 205 > 100 µM | RXF 393 > 100 µM | HL-60 32.2 µM | OVCAR-3 > 100 µM | SF-268 > 100 µM | NCI-H522 > 100 µM | NCI-H226 > 100 µM | SK-OV-3 > 100 µM

O=C1CCC(Cc2ccc(Cl)cc2Cl)C(=O)N1 (centres undefined)
inactive: MOLT-4 59.7 µM | MDA-MB-231 51.8 µM | SR > 100 µM | Malme-3M > 100 µM | UACC-62 > 100 µM | DU-145 > 100 µM | HOP-62 > 100 µM | CAKI-1 > 100 µM | PC-3 > 100 µM | OVCAR-8 > 100 µM | Hs-578T 81.5 µM | COLO 205 > 100 µM | SN12C > 100 µM | RXF 393 32 µM | HL-60 > 100 µM | OVCAR-3 > 100 µM | SF-268 82.4 µM | NCI-H522 66.7 µM | NCI-H226 > 100 µM | SK-OV-3 > 100 µM

CCCCOC(=O)NC(Nc1cccc(C(F)(F)F)c1)(C(F)(F)F)C(F)(F)F
inactive: MOLT-4 34.8 µM | MDA-MB-231 > 100 µM | SR 23.1 µM | Malme-3M 29.2 µM | UACC-62 58.5 µM | DU-145 > 100 µM | HOP-62 > 100 µM | CAKI-1 49.2 µM | PC-3 68.7 µM | OVCAR-8 57.4 µM | Hs-578T 44.7 µM | COLO 205 45.7 µM | SN12C 68.7 µM | RXF 393 50.7 µM | HL-60 23.4 µM | OVCAR-3 56 µM | SF-268 60 µM | NCI-H522 56.4 µM | NCI-H226 53.7 µM

CC1CC(NN(C)C)C2(C(N)=O)C(N)=NC(=O)C12C#N (centres undefined)
inactive: MOLT-4 > 100 µM | MDA-MB-231 > 100 µM | SR > 100 µM | Malme-3M > 100 µM | UACC-62 > 100 µM | DU-145 > 100 µM | HOP-62 > 100 µM | CAKI-1 > 100 µM | PC-3 > 100 µM | OVCAR-8 > 100 µM | Hs-578T > 100 µM | COLO 205 > 100 µM | SN12C > 100 µM | RXF 393 > 100 µM | HL-60 > 10 µM | SF-268 > 100 µM | NCI-H522 > 100 µM | NCI-H226 > 100 µM | SK-OV-3 > 100 µM

CCOc1ccc2c(c1)NC(=O)C(C1OC(c3ccccc3)=CC1=O)S2 (centres undefined)
inactive: MDA-MB-231 25.1 µM | SR 15.7 µM | Malme-3M 21.1 µM | UACC-62 15 µM | DU-145 38.5 µM | HOP-62 53.2 µM | CAKI-1 34.5 µM | PC-3 13.8 µM | OVCAR-8 22.5 µM | Hs-578T 27.5 µM | COLO 205 14 µM | SN12C 26.7 µM | RXF 393 19.7 µM | HL-60 44.8 µM | OVCAR-3 20.1 µM | SF-268 27.5 µM | NCI-H522 10.4 µM | NCI-H226 27.7 µM | SK-OV-3 16.1 µM

CCCCCCCC(CC(=O)NC(CO)C(=O)NC(CO)CC(C)C)OC(=O)CC(CCCCCCC)OC(=O)CC(CCCCCCC)OC1OC(C)C(O)C(OC2OC(C)C(O)C(O)C2OC(C)=O)C1O (centres undefined)
inactive: MOLT-4 2.54 µM | MDA-MB-231 9.38 µM | SR 2.14 µM | Malme-3M 10.9 µM | UACC-62 5.9 µM | DU-145 10.6 µM | HOP-62 12.9 µM | CAKI-1 14.7 µM | PC-3 4.06 µM | OVCAR-8 7.35 µM | Hs-578T 4.51 µM | COLO 205 2.04 µM | SN12C 4.47 µM | RXF 393 2.14 µM | HL-60 3 µM | OVCAR-3 12.9 µM | SF-268 5.89 µM | NCI-H522 12.6 µM | NCI-H226 20.5 µM | SK-OV-3 16.6 µM

CN1CCc2c3n(c4cc(Br)ccc24)[C@H](O)CCCC31 (some centres undefined)
inactive: MOLT-4 1.95 µM | MDA-MB-231 2.13 µM | SR 1.93 µM | Malme-3M 2.04 µM | DU-145 > 10 µM | HOP-62 > 10 µM | CAKI-1 2.99 µM | PC-3 5.89 µM | OVCAR-8 1.79 µM | Hs-578T 2.15 µM | COLO 205 1.78 µM | SN12C > 7.16 µM | RXF 393 2.59 µM | HL-60 1.85 µM | OVCAR-3 > 7.5 µM | SF-268 > 9.31 µM | NCI-H522 1.49 µM | NCI-H226 > 10 µM | SK-OV-3 > 10 µM

CC(C)(C)c1cc(-c2ccc(-c3cc(C(C)(C)C)c(O)c(C(C)(C)C)c3)cc2)cc(C(C)(C)C)c1O
inactive: MOLT-4 > 100 µM | MDA-MB-231 > 100 µM | SR > 100 µM | Malme-3M > 100 µM | UACC-62 > 100 µM | DU-145 > 100 µM | HOP-62 > 100 µM | CAKI-1 > 100 µM | PC-3 > 100 µM | OVCAR-8 > 100 µM | Hs-578T > 10 µM | COLO 205 > 100 µM | SN12C > 100 µM | RXF 393 > 100 µM | HL-60 > 100 µM | OVCAR-3 > 100 µM | SF-268 > 100 µM | NCI-H522 > 100 µM | NCI-H226 > 100 µM | SK-OV-3 > 100 µM

O=S(=O)(O)c1ccc2c(/N=N/c3c(O)ccc4ccccc34)cccc2c1
inactive: MDA-MB-231 > 100 µM | SR > 100 µM | Malme-3M > 100 µM | UACC-62 > 100 µM | DU-145 > 100 µM | HOP-62 > 100 µM | CAKI-1 > 100 µM | PC-3 > 100 µM | OVCAR-8 > 100 µM | Hs-578T > 100 µM | COLO 205 > 100 µM | SN12C > 100 µM | RXF 393 > 100 µM | HL-60 > 100 µM | OVCAR-3 88.9 µM | SF-268 > 100 µM | NCI-H522 > 100 µM | NCI-H226 > 100 µM | SK-OV-3 > 100 µM

N#Cc1c(N)nc2[nH]nc(N)c2c1-c1ccccc1
inactive: MOLT-4 4.04 µM | MDA-MB-231 4.48 µM | SR > 20.4 µM | Malme-3M 4.73 µM | UACC-62 2.72 µM | DU-145 8.11 µM | HOP-62 27.5 µM | CAKI-1 3.2 µM | PC-3 5.13 µM | OVCAR-8 12.5 µM | Hs-578T 5.3 µM | COLO 205 5.65 µM | SN12C 5.33 µM | RXF 393 3.78 µM | HL-60 11.2 µM | OVCAR-3 3.72 µM | SF-268 10.2 µM | NCI-H522 3.72 µM | NCI-H226 11.8 µM | SK-OV-3 4.02 µM
